# Laboratory results published in US20240390434A1, “PROBIOTIC ENHANCERS AND USES THEREOF” (Blis Technologies Limited, priority 2021, published 2024).
# Key:
# Test in all cases: Deferred antagonism assay, producer S. salivarius K12
# Assay type in all cases: cell-based
# [1] = system: S. saprophyticus ATCC 15305; conditions: Staphylococcus saprophyticus, ATCC15305, K12, read-out: Size of zone inhibition normalised to control, S. saprophyticus ATCC 15305
# Experimental: (§1) 1-2 producer strain colonies were transferred from a stock plate into 900 μL of suspension solution using a fresh cotton swab. Following this, suspensions were vortexed, and a sample was inoculated onto solid culture media using a fresh cotton swab. The inoculation was a streak that runs diametrically across the agar plate in a 1.5 cm wide strip. The plate was then incubated. Following incubation all visible colonies were removed by swabbing them from the agar surface. The plates were then treated with chloroform by dispensing 2 ml of chloroform onto 4 cm×4 cm piece of cloth and sealing the inverted agar plate on top for 30 minutes. The plates were then air dried for 30 minutes following chloroforming. 1-2 indicator strain colonies were then transferred from a stock plate into complementary suspension solution. The suspensions were then vortexed, and a sample was inoculated onto the same agar surface. These samples were streaked in a perpendicular direction to the initial producer streak.
# (§2) Each indicator streak was prepared with fresh a suspension containing cells from a corresponding stock plate containing the indicator strain of interest. Indicator strains suspension samples were transferred using a fresh cotton swab. Results were measured by qualitatively reviewing the subsequent (if any) sizes of the zones of inhibition (ZOI) of indicator strain colony growth. A positive result is when there is a distinctive reduction or complete inhibition of indicator colony growth on the culture medium.
# (§3) CABCa agar plates containing various concentrations of saccharide were prepared according to the methods described in Method 1. Producer strains were transferred from stock agar plates into 900 μL THB using a fresh cotton swab. A plastic spread plater was cut to approximately 1.2 cm width and then dipped into ethanol and left to air dry to ensure sterility. A 100 μL sample of the producer strain suspension was then dispensed onto the agar surface in a straight line running diametrically across the agar surface in (approximately) 20 μL spots. The spots were spaced approximately 1.5 cm apart from each other. The plastic spreader was then used to evenly distribute the spots across the agar surface in a 1.5 cm wide strip. This step was taken to ensure an even producer streak was inoculated onto the agar surface and provided an approximate measure of the initial inoculum concentration. Separate plastic spreaders were used for samples containing different producer strains. The samples were left to soak into the agar surface until there was no visible liquid remaining on the agar surface (approximately 20 minutes). Following producer streak preparations, the deferred antagonism assay protocol was followed as per Method 2. Results were recorded by measuring the size of the zone of inhibition (ZOI) in mm.
# (§4) A dose response assay was carried out according to method 3 above, except a 1.2 cm streak was used. For the individual saccharide testing the pH of the producer streak was adjusted after the growth of producer to change the acidic conditions.
# (§5) A deferred antagonism assay was conducted using K12 or M18 raw ingredient suspended in Todd Hewitt broth (THB). This was spread as a 1.2 cm streak containing approximately 1-2×10^6 cfu down the middle of a CABCa control or CABCa galactose supplemented test plate. After 18 hrs growth at 37° C. with 5% CO2, bacterial growth was removed, and the pH of the agar in the initial streak was measured and adjusted to a pH of 6.5-7.5 using 0.5M sodium carbonate pH11 before sterilizing the agar surface using chloroform vapor. Bacterial test strains were suspended in i-THB before being swabbed across the plates perpendicular to the initial streak. Plates were incubated for a further 18 hrs incubation at 37° C. with 5% CO2 before measuring (mm) any zones of inhibition for each test strain, […]
# S. constellatus T29 = conditions: Streptococcus constellatus, T29, K12, read-out: Size of zone inhibition normalised to control, S. constellatus T29
# Experimental: as §1, §2, §3, §4, §5
# S. pneumoniae D39 = conditions: Streptococcus pneumoniae, D39, K12, read-out: Size of zone inhibition normalised to control, S. pneumoniae D39
# Experimental: as §1, §2, §3, §4, §5
# S. pyogenes 71-698 = conditions: Streptococcus pyogenes, 71698, K12, read-out: Size of zone inhibition normalised to control, S. pyogenes 71-698
# Experimental: as §1, §2, §3, §4, §5
# S. mutans OMZ175 = conditions: Streptococcus mutans, OMZ175, K12, read-out: Size of zone inhibition normalised to control, S. mutans OMZ175
# Experimental: as §1, §2, §3, §4, §5
# S. aureus A222 = conditions: K12
# Experimental: as §1, §2, §3, §4, §5
compound,measurement,setting,value
"O=C[C@H](O)[C@@H](O)[C@@H](O)[C@H](O)CO [Galactose, D-galactose]",zone of inhibition at 0.5 % strength,[1]; Galactose 0.5% w/w,0 mm
same,zone of inhibition at 1.25 % strength,[1]; Galactose 1.25% w/w,0 mm
same,zone of inhibition at 1.7 % strength,[1]; Galactose 1.7% w/w,0 mm
same,zone of inhibition at 2.5 % strength,[1]; Galactose 2.5% w/w,0 mm
same,zone of inhibition at 3.3 % strength,[1]; Galactose 3.3% w/w,0 mm
same,zone of inhibition at 5 % strength,[1]; Galactose 5% w/w,0 mm
same,zone of inhibition at 0.5 % strength,S. constellatus T29; Galactose 0.5% w/w,14 mm
same,zone of inhibition at 1.25 % strength,S. constellatus T29; Galactose 1.25% w/w,15 mm
same,zone of inhibition at 1.7 % strength,S. constellatus T29; Galactose 1.7% w/w,12 mm
same,zone of inhibition at 2.5 % strength,S. constellatus T29; Galactose 2.5% w/w,13 mm
same,zone of inhibition at 3.3 % strength,S. constellatus T29; Galactose 3.3% w/w,10 mm
same,zone of inhibition at 5 % strength,S. constellatus T29; Galactose 5% w/w,0 mm
same,zone of inhibition at 0.5 % strength,S. pneumoniae D39; Galactose 0.5% w/w,8 mm
same,zone of inhibition at 1.25 % strength,S. pneumoniae D39; Galactose 1.25% w/w,3 mm
same,zone of inhibition at 1.7 % strength,S. pneumoniae D39; Galactose 1.7% w/w,2 mm
same,zone of inhibition at 2.5 % strength,S. pneumoniae D39; Galactose 2.5% w/w,6 mm
same,zone of inhibition at 3.3 % strength,S. pneumoniae D39; Galactose 3.3% w/w,0 mm
same,zone of inhibition at 5 % strength,S. pneumoniae D39; Galactose 5% w/w,0 mm
same,zone of inhibition at 0.5 % strength,S. pyogenes 71-698; Galactose 0.5% w/w,4.5 mm
same,zone of inhibition at 1.25 % strength,S. pyogenes 71-698; Galactose 1.25% w/w,3.5 mm
same,zone of inhibition at 1.7 % strength,S. pyogenes 71-698; Galactose 1.7% w/w,3.5 mm
same,zone of inhibition at 2.5 % strength,S. pyogenes 71-698; Galactose 2.5% w/w,5.5 mm
same,zone of inhibition at 3.3 % strength,S. pyogenes 71-698; Galactose 3.3% w/w,1.5 mm
same,zone of inhibition at 5 % strength,S. pyogenes 71-698; Galactose 5% w/w,0 mm
same,zone of inhibition at 0.5 % strength,S. mutans OMZ175; Galactose 0.5% w/w,10 mm
same,zone of inhibition at 1.25 % strength,S. mutans OMZ175; Galactose 1.25% w/w,10 mm
same,zone of inhibition at 1.7 % strength,S. mutans OMZ175; Galactose 1.7% w/w,0 mm
same,zone of inhibition at 2.5 % strength,S. mutans OMZ175; Galactose 2.5% w/w,0 mm
same,zone of inhibition at 3.3 % strength,S. mutans OMZ175; Galactose 3.3% w/w,0 mm
same,zone of inhibition at 5 % strength,S. mutans OMZ175; Galactose 5% w/w,0 mm
same,"Inhibitory activity of S. salivarius K12 in presence of saccharides, S. aureus A222",S. aureus A222; saccharide range 0.83%-3.3% w/v,✓
same,zone of inhibition at 0.5 % strength,"S. aureus A222; Staphylococcus aureus, A222, Galactose 0.5% w/w, read-out: Size of zone inhibition normalised to control, S. aureus A222",12 mm
same,zone of inhibition at 1.25 % strength,"S. aureus A222; Staphylococcus aureus, A222, Galactose 1.25% w/w, read-out: Size of zone inhibition normalised to control, S. aureus A222",8 mm
same,zone of inhibition at 1.7 % strength,"S. aureus A222; Staphylococcus aureus, A222, Galactose 1.7% w/w, read-out: Size of zone inhibition normalised to control, S. aureus A222",9 mm
same,zone of inhibition at 2.5 % strength,"S. aureus A222; Staphylococcus aureus, A222, Galactose 2.5% w/w, read-out: Size of zone inhibition normalised to control, S. aureus A222",6 mm
same,zone of inhibition at 3.3 % strength,"S. aureus A222; Staphylococcus aureus, A222, Galactose 3.3% w/w, read-out: Size of zone inhibition normalised to control, S. aureus A222",0 mm
same,zone of inhibition at 5 % strength,"S. aureus A222; Staphylococcus aureus, A222, Galactose 5% w/w, read-out: Size of zone inhibition normalised to control, S. aureus A222",0 mm
